A short description of series [1]: in vitro. As to conditions: human, Caco-2.
Series [2] concerns the target HIV-1 RNase H. As to conditions: read-out: HIV-1 RNase H IC50; in vitro; ref Budihas et al., 2005; cited from earlier work.
Series [3] has as its target human RNase H. Conditions: read-out: human RNase H IC50; ref Budihas et al., 2005; cited from earlier work.
In series [4] the test system is bacterial (Escherichia coli) RNase H. Conditions: read-out: bacterial (Escherichia coli) RNase H IC50; ref Budihas et al., 2005; cited from earlier work.

What is called Papp is the rate of passage across a membrane or cell layer, normalised by area and donor concentration. A higher Papp goes with fast passage. In series [1], `COCCc1ccc(OCC(O)CNC(C)C)cc1` (stereo not shown) [metoprolol] gave a Papp of 16.3 ×10⁻⁶ cm/s and a recovery greater than 93%.
The matching figures for `CC(C)(C)NCC(O)COc1cccc2c1CC(O)C(O)C2` (stereo not shown) [nadolol]: 0.11 ×10⁻⁶ cm/s and greater than 93%.
By IC50 is commonly meant the concentration at which inhibition is half-maximal. On to `CC(C)c1ccc(O)c(=O)c(O)c1` [β-thujaplicinol], for which the IC50 was roughly 0.2 µM in series [2], 5.7 µM in series [3] and 50 µM in series [4].

The values are drawn from publication PMC7441570 (Chemical biology & drug design, 2019).
